Read-outs that look alike come from different tables or passages of the source.
Experiments:
[1] = test system: secondary alcohol dehydrogenase; test: Activity of purified yeast-derived secondary alcohol dehydrogenase; type: biochemical, Pichia sp. NRRL Y-11,328; settings: purified enzyme
[2] = test system: cell-free extracts of strain ATCC 21439; settings: fluorescence spectrophotometry
[3] = test system: cell-free secondary alcohol dehydrogenase (SADH) system; test: Cofactor requirement of cell-free soluble extracts oxidizing 2-butanol; type: biochemical
Procedure: To prepare the cell-free secondary alcohol dehydrogenase (SADH) system, the washed cells were disrupted with a Wave Energy Ultrasonic Oscillator, Model W201 (Wave Energy System, Inc., Newtown, Pa.) and centrifuged at 20,000× g. for 30 minutes. […] The enzyme activity was measured with a fluorescence spectrophotometer (Perkin Elmer, Model MPF 44A) by following the formation of reduced NAD (EX 340 nm, Em 460 nm). The formation of reduced NAD was also followed with an absorption spectrophotometer at 340 nm. The assay system (3 ml.) contained: potassium phosphate buffer pH 7.0; 150 μmol.; NAD 1 μmol.; a given amount of enzyme preparation; and secondary alcohol 10 μmol. The reaction was started by the addition of substrate. One unit of enzyme activity represents the reduction of one μmole NAD per minute. Protein concentrations were determined by the Lowry method (J. Biol. Chem., 193: 255-275 (1951)).

[4] = test system: Methylococcus capsulatus Texas (ATCC 19069); test: Oxidation of n-alkanes to methyl ketones by resting cell suspension; type: cell-based; settings: cell suspension grown on methane
Procedure: (§1) The pH of the nutrient medium was adjusted to 7.0 by the addition of acid or base and 50 ml. samples of the nutrient medium were charged into a plurality of 300 ml. shaker flasks. The shaker flasks were inoculated with an inoculating loop of cells from an agar plate containing homogeneous colonies of the microorganisms on the plate (the purity of the isolates was confirmed by microscopic examination). The isolates had been maintained on methanol (0.4% V/V) agar plates or on agar plates under an atmosphere of methane and air having a 1:1 V/V gas ratio which had been transferred every two weeks. For growth on methanol, the medium was supplemented with 0.4% methanol. For growth on methane, the gaseous phase of the inoculated flasks was replaced with a gas mixture comprised on methane and air having a ratio of 1:1 on a V/V basis. The inoculated flasks were sealed air-tight and were incubated on a rotary shaker of orbital radius 2.5 cm. at 250 rpm and at 30° C. for two days until turbidity in the medium had developed. The cells were harvested by centrifugation at 10,000×g. at 4° C. for 30 minutes. The cell pellet was washed twice with a 0.05 M phosphate buffer at a pH of 7.0 (containing 0.02 M MgCl2). The washed cells were then suspended in a 0.05 M phosphate buffer at pH 7.0.
A 0.5 ml. sample of each washed cell suspension (2 mg. cells) was put into 10 ml. vials at 4° C. which were sealed with a rubber cap. The gaseous phase of the vials was removed with vacuum and then was replaced with a gas mixture of the substrate reactant (i.e., alkane or secondary alcohol) and oxygen at a 1:1 V/V ratio. (In the case of a liquid substrate, i.e., secondary alcohol, 10 μl of the substrate was put in the 10 ml. vials). […] Samples of product (1-3 μl) were withdrawn periodically with a microsyringe and the products were analyzed by gas chromatography (ionization flame detector column).

[5] = test system: particulate P(40) fraction of Methylobacterium sp. (CRL-26, NRRL-B-11,222); test: Hydroxylation of n-alkanes to secondary alcohols by particulate P(40) fraction; type: biochemical
Text: (§2) Both cell suspensions (particulate fraction) and cell-free particulate fraction of methane-grown methylotroph microorganisms are capable of catalyzing the conversion of C3 -C6 n-alkanes to the corresponding alcohols including secondary alcohols. The conditions for preparing the cell suspensions or the cell-free particulate fractions from methane-grown methylotroph microorganisms is the same as described above. The cell-free particulate fraction requires the presence of oxygen and NADH as an electron donor. […] Tables XVI and XVII show the conversion of C3 -C6 n-alkanes to the corresponding secondary alcohols using cell suspensions and cell-free particulate fractions, respectively, of methane-grown methylotroph microorganisms.
(§3) ^(a) Particulate P(40) fraction was prepared as follows:
(§4) Cellsuspensions at 4° C. were disintegrated through a French
(§5) Pressure cell and centrifuged at 4000 × g. for 15 min. to remove
(§6) unbroken bacteria. The supernatant solution was then centrifuged at 40,00
(§7) × g. for 30 min. at 4° C. yielding the particulate P(40) and
(§8) soluble S(40) fractions. The products were identified by gas
(§9) chromatography and cochromatography with authentic standard.

[6] = test system: particulate P(40) fraction of Methylococcus capsulatus (Texas, ATCC 19,069); test: as above; type: biochemical
Text: as §2, §3, §4, §5, §6, §7, §8, §9

[7] = test system: particulate P(40) fraction of Methylosinus trichosporium (OB3b, NRRL-B-11,196); test: as above; type: biochemical
Text: as §2, §3, §4, §5, §6, §7, §8, §9

[8] = target: particulate P(40) fraction of Methylosinus sp. (CRL-15, NRRL-B-11,202) (Methylosinus trichosporium, UniProt Q50541+Q9KX50+Q9KX51); test: as above; type: biochemical
Text: as §2, §3, §4, §5, §6, §7, §8, §9

[9] = test system: Methylocystis parvus OBBP (NRRL B-11,198); test: Oxidation of n-alkanes to methyl ketones by resting cell suspension; type: cell-based; settings: cell suspension grown on methane
Procedure: as §1, with “The shaker flasks were inoculated with an inoculating loop of cells from an agar plate containing homogeneous colonies of the microorganisms on the plate (the purity of the isolates was confirmed by microscopic examination).” left out
(§10) A 0.5 ml. sample of each washed cell suspension (2 mg. cells) was put into 10 ml. vials at 4° C. which were sealed with a rubber cap. The gaseous phase of the vials was removed with vacuum and then was replaced with a gas mixture of the substrate reactant (i.e., alkane or secondary alcohol) and oxygen at a 1:1 V/V ratio. (In the case of a liquid substrate, i.e., secondary alcohol, 10 μl of the substrate was put in the 10 ml. vials). The vials were then incubated at 30° C. on a rotary shaker at 300 rpm. Samples of product (1-3 μl) were withdrawn periodically with a microsyringe and the products were analyzed by gas chromatography (ionization flame detector column).

[10] = test system: Methylobacter capsulatus Y (NRRL B-11,201); test: as above; type: cell-based; settings: cell suspension grown on methane
Procedure: as §1, with “The shaker flasks were inoculated with an inoculating loop of cells from an agar plate containing homogeneous colonies of the microorganisms on the plate (the purity of the isolates was confirmed by microscopic examination).” left out
as §10

[11] = test system: Methylomonas albus BG8 (NRRL B-11,200); test: as above; type: cell-based; settings: cell suspension grown on methane
Procedure: as §1, with “The shaker flasks were inoculated with an inoculating loop of cells from an agar plate containing homogeneous colonies of the microorganisms on the plate (the purity of the isolates was confirmed by microscopic examination).” left out
as §10

[12] = test system: Methylosinus sporium 5 (NRRL B-11,197); test: as above; type: cell-based; settings: cell suspension grown on methane
Procedure: as §1, with “The shaker flasks were inoculated with an inoculating loop of cells from an agar plate containing homogeneous colonies of the microorganisms on the plate (the purity of the isolates was confirmed by microscopic examination).” left out
as §10

[13] = test system: Methylomonas methanica SI (NRRL B-11,199); test: as above; type: cell-based; settings: cell suspension grown on methane
Procedure: as §1, with “The shaker flasks were inoculated with an inoculating loop of cells from an agar plate containing homogeneous colonies of the microorganisms on the plate (the purity of the isolates was confirmed by microscopic examination).” left out
as §10

[14] = test system: Methylosinus trichosporium OB3b (NRRL B-11,196); test: as above; type: cell-based; settings: cell suspension grown on methane
Procedure: as §1, with “The shaker flasks were inoculated with an inoculating loop of cells from an agar plate containing homogeneous colonies of the microorganisms on the plate (the purity of the isolates was confirmed by microscopic examination).” left out
as §10

[15] = test system: Methylobacterium organophilum XX; test: as above; type: cell-based; settings: cell suspension grown on methane
Procedure: as §1, with “The shaker flasks were inoculated with an inoculating loop of cells from an agar plate containing homogeneous colonies of the microorganisms on the plate (the purity of the isolates was confirmed by microscopic examination).” left out
as §10

[16] = test system: Methylosinus trichosporium OB3b NRRL B-11,196; test: Conversion of n-alkanes to oxidation products by cell suspensions; type: cell-based; settings: methane-grown cell suspension, pH 7.0
[17] = test system: Methylococcus capsulatus CRL M1 NRRL B-11,219; test: as above; type: cell-based; settings: methane-grown cell suspension, pH 7.0
[18] = test system: Methylomonas sp. (CRL-17, NRRL-B-11,209); test: Conversion of n-alkanes to secondary alcohols by cell suspensions; type: cell-based; settings: growth substrate Methane
Text: as §2

[19] = test system: Methylobacter capsulatus (Y, NRRL-B-11,201); test: as above; type: cell-based; settings: growth substrate Methane
Text: as §2

[20] = test system: Methylosinus sp. (CRL-15, NRRL-B-11,202); test: as above; type: cell-based; settings: growth substrate Methane
Text: as §2

[21] = test system: Methylosinus trichosporium (OB3b, NRRL-B-11,196); test: as above; type: cell-based; settings: growth substrate Methane
Text: as §2

[22] = test system: Methylococcus capsulatus (Texas, ATCC 19,069); test: as above; type: cell-based; settings: growth substrate Methane
Text: as §2

[23] = test system: Methylobacterium sp. (CRL-26, NRRL-B-11,208); test: as above; type: cell-based; settings: growth substrate Methane
Text: as §2

particulate P(40) fraction of Methylosinus sp. (CRL-15, NRRL-B-11,202), sequence (Q9KX50 40-431): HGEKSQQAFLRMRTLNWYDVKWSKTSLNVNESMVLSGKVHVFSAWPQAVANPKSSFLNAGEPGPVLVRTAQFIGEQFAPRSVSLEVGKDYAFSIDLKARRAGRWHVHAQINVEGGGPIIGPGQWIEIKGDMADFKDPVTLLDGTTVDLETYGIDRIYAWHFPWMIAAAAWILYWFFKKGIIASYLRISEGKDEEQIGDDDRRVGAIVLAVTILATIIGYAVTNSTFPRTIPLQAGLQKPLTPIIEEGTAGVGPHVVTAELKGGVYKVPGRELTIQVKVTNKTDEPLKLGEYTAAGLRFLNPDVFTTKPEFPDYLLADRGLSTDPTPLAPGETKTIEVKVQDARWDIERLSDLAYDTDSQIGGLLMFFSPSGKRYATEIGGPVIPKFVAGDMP
particulate P(40) fraction of Methylosinus sp. (CRL-15, NRRL-B-11,202), sequence (Q50541 1-252): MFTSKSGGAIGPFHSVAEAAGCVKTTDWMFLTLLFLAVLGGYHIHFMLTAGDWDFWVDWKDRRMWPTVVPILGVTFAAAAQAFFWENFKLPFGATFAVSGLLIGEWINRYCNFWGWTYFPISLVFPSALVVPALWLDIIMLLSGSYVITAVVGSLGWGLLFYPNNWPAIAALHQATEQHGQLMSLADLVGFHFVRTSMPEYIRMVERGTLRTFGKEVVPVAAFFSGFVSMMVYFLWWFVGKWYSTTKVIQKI
particulate P(40) fraction of Methylosinus sp. (CRL-15, NRRL-B-11,202), sequence (Q9KX51 1-256): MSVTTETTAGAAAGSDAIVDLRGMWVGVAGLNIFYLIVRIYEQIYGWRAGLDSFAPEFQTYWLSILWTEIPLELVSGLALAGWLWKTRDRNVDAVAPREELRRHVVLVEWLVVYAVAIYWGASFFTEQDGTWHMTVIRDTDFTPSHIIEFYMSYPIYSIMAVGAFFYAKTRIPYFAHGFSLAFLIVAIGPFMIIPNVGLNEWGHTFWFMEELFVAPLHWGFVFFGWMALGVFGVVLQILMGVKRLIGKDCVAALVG

For `NC(=O)c1ccc[n+]([C@@H]2O[C@H](COP(=O)([O-])OP(=O)(O)OC[C@H]3O[C@@H](n4cnc5c(N)ncnc54)[C@H](O)[C@@H]3O)[C@@H](O)[C@H]2O)c1` [NAD, Nicotinamide adenine dinucleotide], the “ability to act as electron acceptor/carrier” value [1] was “required”, the “NAD Consumed” value ([2]; Experiment 1: 10 min) was 270 nmol and the “NAD Consumed” value ([2]; Experiment 2: 20 min) was 540 nmol. The “effectiveness as cofactor for oxidation of 2-butanol” value [3] was “required”.
For `CCC` [n-Propane, n-propane], the “Conversion Rates, n-alkane to methyl ketone” value (“Conversion Rates, n-alkane” below) [4] was 1.2 μmoles/hr/mg protein, the “Conversion Rate, n-alkane to secondary alcohol” value (from here on “Conversion Rate, n-alkane”) [5] was 1.0 μmoles/hr/2.0mg. of protein and the “Conversion Rate, n-alkane” value [6] was 1.2 μmoles/hr/2.0mg. of protein. The “Conversion Rate, n-alkane” value [7] was 1.32 μmoles/hr/2.0mg. of protein, the “Conversion Rate, n-alkane” value [8] was 1.5 μmoles/hr/2.0mg. of protein and the “Conversion Rates, n-alkane” value [9] was 1.8 μmoles/hr/mg protein. The “Conversion Rates, n-alkane” value [10] was 1.6 μmoles/hr/mg protein, the “Conversion Rates, n-alkane” value [11] was 2.7 μmoles/hr/mg protein and the “Conversion Rates, n-alkane” value [12] was 2.1 μmoles/hr/mg protein. The “Conversion Rates, n-alkane” value [13] was 2.5 μmoles/hr/mg protein, the “Conversion Rates, n-alkane” value [14] was 1.5 μmoles/hr/mg protein and the “Conversion Rates, n-alkane” value [15] was 2.8 μmoles/hr/mg protein. For the same molecule, the “Conversion Rate to product 1-Propanol” value [16] was 0.4 μmoles/hr./mg./protein, the “Conversion Rate to product 2-Propanol” value [16] was 0.6 μmoles/hr./mg./protein and the “Conversion Rate to product Acetone” value [16] was 0.2 μmoles/hr./mg./protein. For the same molecule, the “Conversion Rate to product Propanol” value [16] was 0.1 μmoles/hr./mg./protein, the “Conversion Rate to product 1-Propanol” value [17] was 0.5 μmoles/hr./mg./protein and the “Conversion Rate to product 2-Propanol” value [17] was 0.7 μmoles/hr./mg./protein. For the same molecule, the “Conversion Rate to product Acetone” value [17] was 0.3 μmoles/hr./mg./protein, the “Conversion Rate to product Propanol” value [17] was 0.2 μmoles/hr./mg./protein and the “Conversion Rate, n-alkane” value [18] was 1.6 μmoles/hr/^5 mg. protein. For the same molecule, the “Conversion Rate, n-alkane” value [19] was 0.20 μmoles/hr/^5 mg. protein, the “Conversion Rate, n-alkane” value [20] was 2.1 μmoles/hr/^5 mg. protein and the “Conversion Rate, n-alkane” value [21] was 2.5 μmoles/hr/^5 mg. protein. For the same molecule, the “Conversion Rate, n-alkane” value [22] was 1.1 μmoles/hr/^5 mg. protein and the “Conversion Rate, n-alkane” value [23] was 1.4 μmoles/hr/^5 mg. protein.

— US4268630A, “Microbiological production of ketones from C3 -C6 alkanes” (priority 1979, dated 1981)
